Measurements from patent US20250114345A1, “COMPOUNDS AND COMPOSITIONS AS CBP/P300 DEGRADERS AND USES THEREOF” (Oncopia Therapeutics, Inc. d/b/a/ SK Life Science Labs, priority 2023, published 2025).

Molecular target: T1, p300 (Homo sapiens, UniProt Q09472)
T1 construct: host or cells: A549 P300 HiBit cells
Assay: P300 degradation, HiBit technology in A549 P300 HiBit cells (2 h)
Format: cell-based
Conditions: 2 hrs post treatment; for Dmax: A549, A549 P300 HiBit cells; for DC50: A549 P300 HiBit cells
How it was run: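 HiBiT knock-in A549 cells received compound in serial dilution at 37 °C under 5% CO2. Remaining tagged protein was quantified by lytic HiBiT luminescence after 10 min shaking at room temperature, yielding potency and maximal degradation.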

T1 sequence (Q09472 whole entry): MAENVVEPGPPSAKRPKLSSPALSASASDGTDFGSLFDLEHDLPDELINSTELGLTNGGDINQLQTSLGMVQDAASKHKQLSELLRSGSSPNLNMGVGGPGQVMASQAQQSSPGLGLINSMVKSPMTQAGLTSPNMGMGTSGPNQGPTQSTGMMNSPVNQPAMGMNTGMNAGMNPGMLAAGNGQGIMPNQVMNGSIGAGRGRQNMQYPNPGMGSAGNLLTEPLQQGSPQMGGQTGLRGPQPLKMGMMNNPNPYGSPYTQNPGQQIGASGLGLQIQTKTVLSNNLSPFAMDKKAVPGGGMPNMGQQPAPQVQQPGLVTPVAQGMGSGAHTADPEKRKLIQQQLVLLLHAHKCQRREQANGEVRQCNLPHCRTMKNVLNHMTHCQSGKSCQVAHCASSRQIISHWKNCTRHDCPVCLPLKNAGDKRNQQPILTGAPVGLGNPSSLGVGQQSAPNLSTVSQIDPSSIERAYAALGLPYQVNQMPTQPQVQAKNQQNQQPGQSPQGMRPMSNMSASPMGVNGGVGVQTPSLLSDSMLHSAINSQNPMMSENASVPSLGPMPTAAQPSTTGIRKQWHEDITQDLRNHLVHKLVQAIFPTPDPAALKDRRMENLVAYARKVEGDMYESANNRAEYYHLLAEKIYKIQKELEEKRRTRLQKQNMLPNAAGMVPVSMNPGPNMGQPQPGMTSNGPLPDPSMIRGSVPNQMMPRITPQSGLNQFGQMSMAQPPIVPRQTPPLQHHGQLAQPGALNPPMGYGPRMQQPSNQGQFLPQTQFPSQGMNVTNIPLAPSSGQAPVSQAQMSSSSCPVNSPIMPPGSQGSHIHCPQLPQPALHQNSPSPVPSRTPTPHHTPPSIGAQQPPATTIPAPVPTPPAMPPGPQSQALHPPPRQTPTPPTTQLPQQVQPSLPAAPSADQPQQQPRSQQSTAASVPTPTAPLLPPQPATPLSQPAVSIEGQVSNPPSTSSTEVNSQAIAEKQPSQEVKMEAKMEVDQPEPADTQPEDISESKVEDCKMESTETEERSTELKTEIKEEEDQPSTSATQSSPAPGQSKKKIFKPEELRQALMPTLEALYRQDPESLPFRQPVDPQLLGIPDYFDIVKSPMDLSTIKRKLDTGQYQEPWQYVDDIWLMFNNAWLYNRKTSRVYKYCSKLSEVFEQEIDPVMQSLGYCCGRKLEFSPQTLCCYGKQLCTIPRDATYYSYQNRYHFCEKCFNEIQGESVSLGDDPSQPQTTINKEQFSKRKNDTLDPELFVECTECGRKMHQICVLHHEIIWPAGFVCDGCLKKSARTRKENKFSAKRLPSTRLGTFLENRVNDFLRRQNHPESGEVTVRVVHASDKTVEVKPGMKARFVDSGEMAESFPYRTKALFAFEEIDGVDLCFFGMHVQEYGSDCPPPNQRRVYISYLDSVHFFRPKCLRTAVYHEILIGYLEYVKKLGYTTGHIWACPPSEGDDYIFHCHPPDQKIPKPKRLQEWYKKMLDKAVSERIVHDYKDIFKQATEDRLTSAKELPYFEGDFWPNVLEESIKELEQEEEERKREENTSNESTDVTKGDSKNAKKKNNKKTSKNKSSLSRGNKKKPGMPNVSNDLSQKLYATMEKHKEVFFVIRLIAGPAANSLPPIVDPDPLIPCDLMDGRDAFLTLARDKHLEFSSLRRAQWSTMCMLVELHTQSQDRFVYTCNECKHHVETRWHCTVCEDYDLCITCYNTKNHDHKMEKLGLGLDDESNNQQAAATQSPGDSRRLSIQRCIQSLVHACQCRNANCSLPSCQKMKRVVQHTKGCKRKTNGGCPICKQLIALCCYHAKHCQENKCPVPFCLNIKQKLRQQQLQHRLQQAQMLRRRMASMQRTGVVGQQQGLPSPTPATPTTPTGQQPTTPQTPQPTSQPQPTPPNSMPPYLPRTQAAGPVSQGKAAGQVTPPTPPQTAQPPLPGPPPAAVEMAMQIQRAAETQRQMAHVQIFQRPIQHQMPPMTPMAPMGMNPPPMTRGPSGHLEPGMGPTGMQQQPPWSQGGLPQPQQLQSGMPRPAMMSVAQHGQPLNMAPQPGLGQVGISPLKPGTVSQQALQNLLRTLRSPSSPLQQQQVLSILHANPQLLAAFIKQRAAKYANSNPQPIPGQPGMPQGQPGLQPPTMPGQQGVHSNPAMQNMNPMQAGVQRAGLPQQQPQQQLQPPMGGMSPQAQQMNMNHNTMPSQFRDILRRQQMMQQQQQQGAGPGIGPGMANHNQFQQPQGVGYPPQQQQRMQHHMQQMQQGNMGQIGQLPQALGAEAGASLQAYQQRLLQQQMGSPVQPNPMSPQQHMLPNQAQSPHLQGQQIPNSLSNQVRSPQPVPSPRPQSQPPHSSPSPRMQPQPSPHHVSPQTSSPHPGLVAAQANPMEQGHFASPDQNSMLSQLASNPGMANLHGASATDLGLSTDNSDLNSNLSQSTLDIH

| Compound | Dmax | DC50 |
| --- | --- | --- |
| Cc1cc(-c2ccc(N(C)c3cc(C(C)C)c4c(c3)n(C)c(=O)n4C)cn2)cnc1C(=O)NCC#Cc1cc(NC2CCC(=O)NC2=O)nn1C (centres unmarked) [Example A154, N-(3-(3-((2,6-dioxo-piperidin-3-yl)amino)-1-methyl-1H-pyrazol-5-yl)prop-2-yn-1-yl)-5-((7-isopropyl-1,3-dimethyl-2-oxo-2,3-dihydro-1H-benzo [d]imidazol-5-yl) (methyl)amino)-5′-methyl-[2,3′-bipyridine]-6′-carboxamide] | 60 to 79% | 10 to 99 nM |
| Cc1cc(-c2ncc(N(C)c3cc(C(C)C)c4c(c3)n(C)c(=O)n4C)cn2)cnc1C(=O)NCC#Cc1ccc2occ(C3CCC(=O)NC3=O)c2c1 (centres unmarked) [Example A156, N-(3-(3-(2,6-dioxo-piperidin-3-yl)benzofuran-5-yl)prop-2-yn-1-yl)-5-(5-((7-isopropyl-1,3-dimethyl-2-oxo-2,3-dihydro-1H-benzo [d]imidazol-5-yl)(methyl)amino)pyrimidin-2-yl)-3-methylpicolinamide] | > 80% | 1 to 9.9 nM |
| Cn1c(=O)n(C)c2ncc(-c3cccc4cc(-c5ccc(C(=O)NCC#Cc6ccc7occ(C8CCC(=O)NC8=O)c7c6)nc5)ncc34)cc21 (centres unmarked) [Example A157, 5-(8-(1,3-dimethyl-2-oxo-2,3-dihydro-1H-imidazo[4,5-b]pyridin-6-yl)isoquinolin-3-yl)-N-(3-(3-(2,6-dioxopiperidin-3-yl)benzofuran-5-yl)prop-2-yn-1-yl)picolinamide] | > 80% | 1 to 9.9 nM |
| CC(C)c1cc(-c2cccc3cc(-c4ccc(C(=O)NCC#Cc5ccc6occ(C7CCC(=O)NC7=O)c6n5)nc4)ncc23)cc2c1n(C)c(=O)n2C (centres unmarked) [Example A159, N-(3-(3-(2,6-dioxo-piperidin-3-yl)furo[3,2-b]pyridin-5-yl)prop-2-yn-1-yl)-5-(8-(7-isopropyl-1,3-dimethyl-2-oxo-2,3-dihydro-1H-benzo [d]imidazol-5-yl)isoquinolin-3-yl)picolinamide] | 40 to 59% | 10 to 99 nM |
| COc1cc(-c2cnc(C(=O)NCC#Cc3cc4c(C5CCC(=O)NC5=O)cccc4o3)c(C)c2)ncc1N(C)c1cc(C2CCOCC2)c2c(c1)n(C)c(=O)n2C (centres unmarked) [Example A166, 5-((1,3-dimethyl-2-oxo-7-(tetrahydro-2H-pyran-4-yl)-2,3-dihydro-1H-benzo[d]imidazol-5-yl)(methyl)amino)-N-(3-(4-(2,6-dioxopiperidin-3-yl)benzofuran-2-yl)prop-2-yn-1-yl)-4-methoxy-5′-methyl-[2,3′-bipyridine]-6′-carboxamide] | 20 to 39% | 1 to 9.9 nM |
| COc1nc(-c2cnc(C(=O)NCC#Cc3cc4c(C5CCC(=O)NC5=O)cccc4o3)c(C)c2)ncc1N(C)c1cc(C2CCOCC2)c2c(c1)n(C)c(=O)n2C (centres unmarked) [Example A167, 5-(5-((1,3-dimethyl-2-oxo-7-(tetrahydro-2H-pyran-4-yl)-2,3-dihydro-1H-benzo[d]imidazol-5-yl)(methyl)amino)-4-methoxypyrimidin-2-yl)-N-(3-(4-(2,6-dioxopiperidin-3-yl)benzofuran-2-yl)prop-2-yn-1-yl)-3-methylpicolinamide] | 60 to 79% | 1 to 9.9 nM |
| Cc1cc(-c2ncc(N(C)c3cc(C4CCOCC4)c4c(c3)n(C)c(=O)n4C)cn2)cnc1C(=O)NCC#Cc1cc2c(C3CCC(=O)NC3=O)nccc2o1 (centres unmarked) [Example A168, 5-(5-((1,3-dimethyl-2-oxo-7-(tetrahydro-2H-pyran-4-yl)-2,3-dihydro-1H-benzo[d]imidazol-5-yl)(methyl)amino)pyrimidin-2-yl)-N-(3-(4-(2,6-dioxopiperidin-3-yl)furo[3,2-c]pyridin-2-yl)prop-2-yn-1-yl)-3-methylpicolinamide] | > 80% | 1 to 9.9 nM |
